From patent US7674831B2, “Heterocyclic compounds as sweetener enhancers” (Redpoint Bio Corporation, priority 2006, dated 2010) come the findings set out here.

Some results are limits rather than exact numbers.

Assay type in all cases: cell-based
Assay [1] concerns the target T1, human TRPM5 (Homo sapiens, UniProt Q9NZQ8).
T1 construct: expressed in transfected cells
T1 sequence (Q9NZQ8 1-1165): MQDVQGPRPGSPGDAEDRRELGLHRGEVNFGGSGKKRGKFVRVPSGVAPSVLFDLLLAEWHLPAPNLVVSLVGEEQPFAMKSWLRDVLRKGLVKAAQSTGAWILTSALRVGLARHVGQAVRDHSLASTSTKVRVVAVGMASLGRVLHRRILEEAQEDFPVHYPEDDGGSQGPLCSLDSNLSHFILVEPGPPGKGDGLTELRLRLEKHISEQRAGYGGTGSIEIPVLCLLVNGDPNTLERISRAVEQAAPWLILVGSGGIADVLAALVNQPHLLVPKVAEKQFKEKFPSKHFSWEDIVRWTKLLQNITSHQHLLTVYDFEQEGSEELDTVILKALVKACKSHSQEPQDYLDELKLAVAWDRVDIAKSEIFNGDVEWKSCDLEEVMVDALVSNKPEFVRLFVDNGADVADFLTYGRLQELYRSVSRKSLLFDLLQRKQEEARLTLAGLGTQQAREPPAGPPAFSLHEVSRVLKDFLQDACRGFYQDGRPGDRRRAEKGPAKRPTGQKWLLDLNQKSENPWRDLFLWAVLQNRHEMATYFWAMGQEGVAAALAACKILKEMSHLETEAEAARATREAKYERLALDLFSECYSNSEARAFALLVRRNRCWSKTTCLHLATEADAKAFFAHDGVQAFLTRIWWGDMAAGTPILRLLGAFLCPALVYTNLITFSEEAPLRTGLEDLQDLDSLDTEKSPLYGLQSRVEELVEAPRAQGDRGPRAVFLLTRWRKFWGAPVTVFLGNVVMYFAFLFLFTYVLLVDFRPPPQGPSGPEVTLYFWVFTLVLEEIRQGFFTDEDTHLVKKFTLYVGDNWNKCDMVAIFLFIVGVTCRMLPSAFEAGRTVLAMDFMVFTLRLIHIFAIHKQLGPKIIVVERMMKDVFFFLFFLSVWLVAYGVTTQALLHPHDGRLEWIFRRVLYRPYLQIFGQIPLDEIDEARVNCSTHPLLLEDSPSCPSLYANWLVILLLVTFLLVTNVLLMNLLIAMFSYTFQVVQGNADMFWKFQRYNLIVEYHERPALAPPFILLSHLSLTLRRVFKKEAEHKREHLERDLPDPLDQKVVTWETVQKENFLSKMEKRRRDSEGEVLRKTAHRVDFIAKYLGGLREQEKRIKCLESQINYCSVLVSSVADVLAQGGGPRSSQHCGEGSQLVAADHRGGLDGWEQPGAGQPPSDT
Nature of the assay: TRPM5 membrane potential dye FLIPR assay in hTRPM5-HEK293 cells, ATP stimulated. As to conditions: for inhibition at 10 µM: 10 μM compound, 3 μM ATP, read-out: TRPM5 Activity (percent inhibition; enhancement is negative inhibition). How it is done:
The activity of human TRPM5 ion channel was measured in live cells on a fluorescent imaging plate reader (FLIPR). The basis of the assay (shown in FIG. 1) is the calcium-dependent activation of the ion channel which occurs via by activation of a G-protein coupled receptor (GPCR). GPCR activation by an appropriate agonist causes a transient increase in […] Ca^2+ ion concentration which in turn causes the ion channel to open, letting in Na^+ ions. This influx causes a change in the membrane potential of the cell which can be monitored as a change in the fluorescent signal from voltage-dependent (membrane potential) fluorescent dyes.
For the screening assay, the human TRPM5 gene was cloned, put into HEK293 cells, and a stable, high expression clone was used for screening. Cells were grown in standard media at 37° C. The day before screening, the cells were removed from flasks and added to 384 well clear bottom plates (8K cells in 20 μL/well). On the assay day, 20 μL of membrane potential dye (Part No. R8123, Molecular Devices Corp.) was added to the cells and dye was allowed to be taken up, i.e., load, into the cells for 1 hr at 37° C. […] The assay was started by addition of 10 μL of solution from the compound plate into the cell plate. During this process, continuous fluorescent recordings were made simultaneously for all wells. After addition of the compound solution, the tips were automatically washed and a stimulation solution of 3 μM ATP to activate TRPM5 (an agonist for an endogenous purinurgic GPCR), was added to all wells of the cell plate. The height of the response was calculated and percent inhibition or enhancement values, versus negative control wells, was calculated for the test samples. Exemplary results are shown in the upper left graph of FIG. 3.

For assay [2], the system named is GPCR-mediated calcium activation step. Nature of the assay: Calcium counterscreen (calcium sensitive dye, ATP stimulated). The conditions noted are these: Homo sapiens, 10 μM compound, read-out: Calcium Counterscreen (percent inhibition). The method, then:
(§1) Two counterscreen assays were run on separate cell plates utilizing the same cells as described above. In the calcium counterscreen, the cells were loaded with a calcium sensitive dye (Calcium3 Dye, Part no. 8090, Molecular Devices Corp.) and stimulated by ATP to check for compounds that block the GPCR-mediated calcium activation step. Exemplary results of this assay are shown in the lower left graph of FIG. 3. In the KCl counterscreen, cells are stimulated with 10 mM KCl instead of ATP to check for compounds that inhibit the membrane potential response by virtue of being non-specific ion channel blockers or enhancers.
For orientation: A counterscreen serves to expose hits that act by an unwanted route or on another target.

For assay [3], the system named is membrane potential response (non-specific ion channel blockers or enhancers). Nature of the assay: KCl counterscreen (membrane potential response, 10 mM KCl instead of ATP). The conditions noted are these: Homo sapiens, 10 μM compound, read-out: KCl Counterscreen (percent inhibition). How it is done:
as §1

Assay [4] addresses T1, human TRPM5. In words: Whole-cell electrophysiological recording of TRPM5 current. As to conditions: 10 μM compound. The method, then: Standard whole-cell recordings were obtained from […] cells stably transfected with human TRPM5. Internal solution contained 135 mM CsGlutamate, 10 mM HEPES, 2 mM MgATP, 5 mM CaCl2 and 10 mM EGTA. External solution was HBSS (Gibco) buffered with 20 mM HEPES to pH 7.2. Currents were recorded with Multiclamp 700B amplifier using PClamp software; filtered at 1 kHz, sampled at 5 kHz. Holding potential was −80 mV. TRPM5 current in a single was activated by intracellular calcium dialysis (free calcium) and sampled with 200 ms ramps from −80 to 80 mV at 1 Hz. Current amplitudes were measured at −80 and 80 mV and plotted versus time. […] In essence, it appears that the compound makes the TRPM5 responsive lower or weaker Ca++ signals than is normally the case.

In assay [5] the test system is non-transfected, sham HEK cells. In words: Whole-cell electrophysiological recording in sham cells.

Regarding `CCOC(=O)C/N=c1\sc2ccccc2n1C` [Example 1, Ethyl 2-(3-Methylbenzo[d]thiazol-2(3H)-ylideneamino)acetate], the inhibition at 10 µM on human TRPM5 [1] was -139%; in assay [2], -18%; in assay [3] it was 10%.
The matching figures for `COc1ccccc1OCCSc1nc2ccccc2[nH]1` [Example 2, 2-(2-(2-Methoxyphenoxy)ethylthio)-1H-benzimidazole]: -136%, 19% and -3%.
The matching figures for `COC(=O)c1sccc1Oc1ccc([N+](=O)[O-])cn1` [Example 3]: -113%, 11% and 17%.
The matching figures for `CCc1nnc2nc(-c3ccc(Cl)c([N+](=O)[O-])c3)[nH]n12` [Example 4, 6-(4-Chloro-3-nitrophenyl)-3-ethyl-5H-[1,2,4]triazolo[4,3-b][1,2,4]triazole]: -101%, 13% and -32%.
Take `Cc1ccc(-c2cn3ncsc3n2)cc1` [Example 5, 6-p-Tolylimidazo[2,1-b][1,3,4]thiadiazole]: the inhibition at 10 µM is -100% at human TRPM5 [1], 23% in assay [2] and 7% in assay [3].
The matching figures for `O=C(Nc1ccccc1)N1CCCN(c2nc(-c3ccccc3)ns2)CC1` [Example 6, N-Phenyl-4-(3-phenyl-1,2,4-thiadiazol-5-yl)-1,4-diazepane-1-carboxamide]: -98%, -69% and 16%.
As for `COc1cccc(OC)c1OCCSc1nc2ccccc2n1CCO` [Example 7, 2-(2-(2-(2,6-Dimethoxyphenoxy)ethylthio)-1H-benzimidazol-1-yl)ethanol], the inhibition at 10 µM was -95% at human TRPM5 [1], -15% in assay [2] and -4% in assay [3].
For the molecule `CCn1c(C)nc([N+](=O)[O-])c1Sc1ccc(Cl)cn1` [Example 8, 1-Ethyl-2-methyl-4-nitro-5-(5-chloropyridin-2-ylthio)imidazole], the figures for the inhibition at 10 µM (on human TRPM5 [1]; in assay [2]; in assay [3]) were -76%, -22% and 7%, respectively. Moreover, the “effect on TRPM5 activity (FIG. 3)” value at human TRPM5 [1] (1, 3, 10 and 30 μM compound) was “selective enhancement”.
With `CC1(C)C(c2ccccc2)=NC(c2ccccc2)=[N+]1[O-]` [Example 9, 2,4-Diphenyl-5,5-dimethylimidazole-1-oxide], the results for the inhibition at 10 µM (at human TRPM5 [1]; in assay [2]; in assay [3]) were -73%, -15% and 17%, respectively.
Regarding `C=CCNC(=S)/N=c1\sc2ccccc2n1C` [Example 10, 1-Allyl-3-(3-methylbenzo[d]thiazol-2-(3H)-ylidene)thiourea], the inhibition at 10 µM is -73% on human TRPM5 [1], 0% in assay [2] and 1% in assay [3]. Besides, at human TRPM5 [4] (30 μm calcium), the “TRPM5 current stimulation by compound” value is recorded as “further stimulation”. In addition, the “TRPM5 current in response to compound” value at human TRPM5 [4] (+80 mV, calcium 300 nm) is over 5 nA. For the same molecule, at human TRPM5 [4] (absence of calcium), the “TRPM5 current activation by compound” value was “no current activation”. Also, in assay [5], the “current in sham cells” value is “no significant current”.
For `N=c1sccn1CC(=O)c1cccc([N+](=O)[O-])c1` [Example 11, 2-(2-Iminothiazol-3(2H)-yl)-1-(3-nitrophenyl)ethanone], the inhibition at 10 µM on human TRPM5 [1] was -68%; in assay [2], -12%; in assay [3] it was 21%.
For the molecule `Cc1csc(-c2cn(C(C)C)c(=O)n(Cc3ccccc3)c2=O)n1` [Example 12], the inhibition at 10 µM was -62% at human TRPM5 [1], -5% in assay [2] and 3% in assay [3].
With `COc1c(Cl)cccc1-c1cn2ccccc2n1` [Example 13, 2-(3-Chloro-2-methoxyphenyl)imidazo[1,2-a]pyridine], the values for the inhibition at 10 µM (at human TRPM5 [1]; in assay [2]; in assay [3]) were -57%, 9% and -10%, respectively.
The matching figures for `CCc1ccc(-c2csc(NC(=O)c3cc(OC)cc(OC)c3)n2)cc1` [Example 14, N-(4-(4-Ethylphenyl)thiazol-2-yl)-3,5-dimethoxybenzamide]: -55%, 10% and -101%.
The matching figures for `O=c1sc2ccccc2c2c1ncn2-c1ccccc1` [Example 15, 1-Phenylthiochromeno[4,3-d]imidazol-4(1H)-one]: -48%, -22% and -9%.
Turning to `CN(C)CC(=O)Nc1nc(-c2ccc(Cl)cc2)cs1` [Example 16, N-(4-(4-Chlorophenyl)thiazol-2-yl)-2-(dimethylamino)acetamide], the inhibition at 10 µM is -23% at human TRPM5 [1], -25% in assay [2] and -9% in assay [3].
The matching figures for `Cn1nc(C(F)(F)F)c(C(=O)Nc2ccc(C(F)(F)F)cc2)c1Cl` [Example 17, 5-Chloro-1-methyl-3-(trifluoromethyl)-N-(4-(trifluoromethyl)phenyl)-1H-pyrazole-4-carboxamide]: -16%, 4% and -25%.

For orientation: inhibition means the drop in the measured response relative to a control, in per cent.
